The target of this assay is T1, ACOT1 (Acyl-CoA Thioesterase 1) (Homo sapiens, UniProt Q86TX2).
T1 construct: endogenous protein in NP-40 cell lysate, western blot read-out; mouse MFC used for xenograft
T1 sequence (Q86TX2 2-421): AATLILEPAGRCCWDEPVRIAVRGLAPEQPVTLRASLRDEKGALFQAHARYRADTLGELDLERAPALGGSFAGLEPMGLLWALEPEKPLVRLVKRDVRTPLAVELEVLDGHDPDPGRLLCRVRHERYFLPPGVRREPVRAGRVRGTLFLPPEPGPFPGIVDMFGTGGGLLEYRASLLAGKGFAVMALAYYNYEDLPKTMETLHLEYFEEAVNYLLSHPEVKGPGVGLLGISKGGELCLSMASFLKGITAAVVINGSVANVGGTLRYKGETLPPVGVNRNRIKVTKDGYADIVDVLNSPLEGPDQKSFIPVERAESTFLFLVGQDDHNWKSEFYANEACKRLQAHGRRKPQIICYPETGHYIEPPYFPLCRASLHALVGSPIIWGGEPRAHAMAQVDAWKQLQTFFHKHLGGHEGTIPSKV
The assay can be described thus: cellular thermal shift assay (CETSA) in cell lysate, western blot. Conditions: 60 μM piperine vs DMSO, 4 °C 5 h, then 35–60 °C for 3 min. It is filed as biochemical.

The text below walks through data of article PMC12376458, “Multi-omics analysis reveals ACOT1 as the key target of piperine in Piper Longum-mediated gastric cancer treatment” (Chinese Medicine, 2025).

Turning to `O=C(/C=C/C=C/c1ccc2c(c1)OCO2)N1CCCCC1` [piperine], the “cellular thermal shift assay (CETSA) in cell lysate, western blot” value is listed as “CETSA experimental results showed that piperine treatment enhanced the thermal stability of ACOT1”.
